{"source": "paper PMC2752443", "about": "(2009)", "key": {"[1]": {"tested_on": "theophylline-binding RNA aptamer (RNA, aptamer) GGCGAUACCAGCCGAAAGGCCCUUGGCAGCGUC", "experiment": "2D 1H-1H NMR ZZ-exchange", "settings": "no Mg2+; 15 °C; apparent; slope of kf against free theophylline"}, "[2]": {"tested_on": "theophylline-binding RNA aptamer (RNA, aptamer) GGCGAUACCAGCCGAAAGGCCCUUGGCAGCGUC", "experiment": "2D 1H-1H NMR ZZ-exchange, koff/kon", "settings": "no Mg2+; 15 °C; from apparent rate constants"}}, "data": [{"smiles": "Cn1c(=O)c2[nH]cnc2n(C)c1=O", "values": [{"measurement": "kon", "setting": "[1]", "result": "600 ± 57", "unit": "M⁻¹ s⁻¹"}, {"measurement": "Kd", "setting": "[2]", "result": 2500, "unit": "µM"}]}]}
